Changes are numbered by the printed parent chain. Values after ≈ are worked out from the molar mass of the structure shown. Read-outs that look alike come from different tables or passages of the source.
Legend:
TGR5 [1] = biological target: T1, TGR5 (Homo sapiens, UniProt Q8TDU6); assay: TGR5 activity: intracellular cAMP levels, NCI-H716 cells (HTR-FRET); type: cell-based; parameters: endogenous in cells; host or cells: NCI-H716; details: NCI-H716 cells; for Emax: 1 h, Ref. LCA 100% at 10 μM, read-out: TGR5 (NCI-H716) Efficacy; for EC50: cAMP
T1 sequence (Q8TDU6 1-330): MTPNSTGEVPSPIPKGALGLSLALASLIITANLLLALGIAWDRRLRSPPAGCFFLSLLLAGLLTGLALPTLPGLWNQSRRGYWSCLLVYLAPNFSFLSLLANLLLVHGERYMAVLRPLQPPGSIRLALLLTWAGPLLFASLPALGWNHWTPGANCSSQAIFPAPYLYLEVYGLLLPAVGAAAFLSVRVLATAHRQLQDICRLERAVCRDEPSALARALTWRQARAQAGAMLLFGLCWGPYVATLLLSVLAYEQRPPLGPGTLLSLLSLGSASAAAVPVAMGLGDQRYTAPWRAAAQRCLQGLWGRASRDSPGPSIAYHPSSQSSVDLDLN
Description: Activation of TGR5 was assessed by measuring the level of cAMP using an HTR-FRET assay. Thus, NCI-H716 cells were cultured on 96-well plates coated with Matrigel (Corning, USA) (0.75 mg/ml) in DMEM supplemented with 10% FCS, 100 units/ml penicillin, and 100 μg/ml streptomycin sulphate. […] The level of intracellular cAMP was determined with Lance kit. Z′ factor was used to validate assays.

[2] = Lipophilicity, 1-octanol/water partition coefficient (shake-flask); type: physicochemical; details: pH 8.00, ionized BA
Description: The experiments were carried out on 1 mM initial bile salt solution buffered at pH 8.00 with 0.1 M potassium phosphate buffer to ensure complete ionization of the BA. BA concentration in the water phase before and after partition in 1-octanol was measured by HPLC-ESMS/MS as reported below.

bovine serum albumin = bovine serum albumin (Bos taurus, UniProt P02769); assay: Albumin binding by equilibrium dialysis; type: in vitro ADME; details: 5% bovine serum albumin saline solution, 25° C.
Sequence of bovine serum albumin (P02769 25-607): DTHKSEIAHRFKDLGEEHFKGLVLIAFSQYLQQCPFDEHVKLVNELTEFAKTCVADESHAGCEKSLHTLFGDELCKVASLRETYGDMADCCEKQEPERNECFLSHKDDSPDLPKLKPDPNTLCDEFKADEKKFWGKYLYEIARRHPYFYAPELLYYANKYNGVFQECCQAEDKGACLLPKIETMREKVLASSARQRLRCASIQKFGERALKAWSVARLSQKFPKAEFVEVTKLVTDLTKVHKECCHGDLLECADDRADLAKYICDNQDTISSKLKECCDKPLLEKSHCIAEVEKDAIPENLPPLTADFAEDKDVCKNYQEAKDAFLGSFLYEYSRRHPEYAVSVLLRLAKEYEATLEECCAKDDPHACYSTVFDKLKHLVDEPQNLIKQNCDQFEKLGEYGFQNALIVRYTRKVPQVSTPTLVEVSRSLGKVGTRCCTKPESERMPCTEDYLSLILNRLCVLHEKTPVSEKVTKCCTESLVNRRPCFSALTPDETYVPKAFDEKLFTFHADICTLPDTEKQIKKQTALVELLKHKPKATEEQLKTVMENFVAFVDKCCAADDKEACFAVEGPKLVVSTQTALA
Description: BA was dissolved at a concentration of […] in 5% bovine serum albumin saline solution and left to stand for 24 hours at 25° C. Two milliliters of this solution was dialyzed in cellulose sacs with a molecular weight cut-off of 12-14 kDa (Spectra/Por; Spectrum Medical Industries Inc., Rancho Dominguez, Calif.) against 25 ml of saline solution. The system was equilibrated by mechanical shaking for 72 hours at 25° C. BA concentrations in the starting solution and in the dialyzed solution were determined by HPLC-ES-MS/MS as reported below.

mTGR5 = biological target: T2, mTGR5 (Mus musculus, UniProt Q80SS6); assay: TGR5 activity: cAMP in mTGR5 CHO-Pi10 clone 4 cells; type: cell-based; details: mTGR5 CHO cells, value in parentheses; for Emax: 0.5 h, read-out: (mTGR5 CHO) Efficacy
T2 construct: expressed in transfected cells; host or cells: CHO-Pi10 clone 4
T2 sequence (Q80SS6 1-329): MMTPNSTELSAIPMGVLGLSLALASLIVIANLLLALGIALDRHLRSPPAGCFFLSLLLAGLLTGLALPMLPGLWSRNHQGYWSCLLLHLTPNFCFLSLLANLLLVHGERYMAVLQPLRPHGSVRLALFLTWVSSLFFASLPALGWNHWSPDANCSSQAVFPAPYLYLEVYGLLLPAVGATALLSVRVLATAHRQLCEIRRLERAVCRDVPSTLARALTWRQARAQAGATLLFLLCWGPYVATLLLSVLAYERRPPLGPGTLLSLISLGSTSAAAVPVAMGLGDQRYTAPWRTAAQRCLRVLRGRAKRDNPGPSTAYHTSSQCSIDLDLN

[3] = Critical micellar concentration (surface tension / dye solubilization); type: physicochemical
[4] = as above; type: physicochemical; details: for CMC: BA sodium salts in 0.1 M NaCl, 25° C.; for STCMC: surface tension at CMC
Description: In the first method, the surface tension was performed by maximum bubble-pressure method using a Sensadyne 6000 tensiometer (Chem-Dyne Research Corp., Milwaukee, Wis.). The surface tension of aqueous solutions at various concentrations (range 0.1-100 mM) of the BA sodium salts in 0.1 M NaCl was measured at 25° C. The surface tension values were plotted against the logarithm of the bile salt concentration; the regression lines corresponding to the two parts of the curve (monomeric and micellar phases) were calculated using the method of least squares. The critical micellar concentration (CMC) value (mM) was obtained by the intersection of the two lines.
The second method is based on the fact that some dyes, specifically Orange OT ([…]), are almost insoluble in water but dissolve in solutions with micellar aggregates that incorporate them; thus, the intensity of color of the solution increases with bile salt concentration (after CMC achievement). The amount of dye solubilized in relation to bile salt concentration was determined spectrophotometrically.
For each bile acid, various solution at different concentrations, between 50 mM and 0.1 mM with appropriate dilutions, were incubated under stirring at room temperature for 3 days with an excess of Orange OT. Then all the solutions were centrifuged and filtered through a 0.22 μm Millipore fiiter (Millipore Corp., Bedford, Mass.).

Water solubility = type: physicochemical; details: 0.1 M HCl, pH 1.00, 25° C., read-out: Ws
Description: BA were suspended in 100 ml of 0.1 M HCl, pH 1.00, and the saturated solutions were transferred to a thermostat-equipped water bath maintained at 25° C. After incubation for 1 week, the solutions were filtered on a Millipore filter ([…]), and the concentration of BA was measured by HPLC-ESMS/MS as reported below.

TGR5 [5] = biological target: T1, TGR5; assay: TGR5 activity: cAMP in hTGR5 CHO-k1 cells; type: cell-based; parameters: expressed in transfected cells; host or cells: CHO-k1; details: hTGR5 CHO cells; for Emax: 0.5 h, Ref. LCA 100% at 10 μM, read-out: hTGR5 CHO Efficacy; for EC50: cAMP
[6] = biological target: T3, mouse glutathione transferase-tagged FXR-LBD (Mus musculus, UniProt Q60641); assay: FXR AlphaScreen coactivator recruitment assay (mouse); type: biochemical; details: mouse FXR-LBD, value in parentheses; for EC50: read-out: (mFXR) EC50; for Emax: read-out: (mFXR) Efficacy
T3 construct: mouse glutathione transferase-tagged FXR-LBD (generated in-house); made in house
T3 sequence (Q60641 264-488 limits assumed): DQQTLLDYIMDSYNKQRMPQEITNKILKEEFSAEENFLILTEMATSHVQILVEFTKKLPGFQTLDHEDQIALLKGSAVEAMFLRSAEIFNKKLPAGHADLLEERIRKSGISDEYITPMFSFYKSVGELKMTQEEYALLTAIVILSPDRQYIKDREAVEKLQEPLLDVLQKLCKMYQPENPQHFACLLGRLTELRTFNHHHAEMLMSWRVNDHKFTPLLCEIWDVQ
Description: (§1) Activation of the FXR receptor was determined using a recruitment coactivator assay, namely AlphaScreen technology. The assays were performed using human glutathione transferase-tagged FXR-LBD (Life Technologies, USA) and mouse glutathione transferase-tagged FXR-LBD (generated in-house). Briefly, assays were conducted in white, low-volume, 384-well OptiPlate using a final volume of 25 μL containing 10 nM glutathione transferase-tagged FXR-LBD protein and 30 nM biotinylated Src-1 peptide. The stimulation was carried out with different BA concentrations for 30 minutes at 25° C. […] Dose-response curves were performed in triplicate and Z′ factor was used to validate the robustness of the assay.

[7] = biological target: T4, human glutathione transferase-tagged FXR-LBD (Homo sapiens, UniProt Q96RI1); assay: FXR AlphaScreen coactivator recruitment assay (human); type: biochemical; parameters: Emax: dose or concentration left out as unconfirmed; details: for EC50: human FXR-LBD, AlphaScreen, read-out: hFXR EC50; for Emax: read-out: hFXR Efficacy;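 on hFXR Efficacy: CDCA at 50 µM taken as 100%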
T4 construct: human glutathione transferase-tagged FXR-LBD (Life Technologies, USA); purchased Life Technologies, USA
T4 sequence (Q96RI1 262-486 limits assumed): T3 sequence (Q60641 264-488 limits assumed) with D7H, Y8F, S46N, I50V, A95S, A98S, K107N, V125I, M174I, Y175H
Description: as §1

[8] = simulated gastric fluid, thermodynamic from solid

Structure (SMILES)	Emax (TGR5 [1])	EC50 (TGR5 [1])	LogPA− [2]	Albumin binding (%) (bovine serum albumin)	Emax (mTGR5)	EC50 (mTGR5)	pKa (pKa)	CMpH [3]	CMC [4]	solubility thermodynamic at 1 week (Water solubility; [8])	Emax (TGR5 [5])	EC50 (TGR5 [5])	EC50 [6]	Emax [6]	EC50 [7]	Emax [7]	STCMC [4]	solubility thermodynamic at 1 week (Water solubility)
CC[C@H]1[C@@H](O)C2C3CC[C@H]([C@H](C)CC(F)(F)C(=O)O)[C@@]3(C)CCC2[C@@]2(C)CC[C@@H](O)C[C@@H]12 (stereo partly drawn) [Compound 10, 3α,7α-Dihydroxy-6α-ethyl-23,23-gemdifluoro-5β-cholan-24-oic acid]	125 ± 1%	1.6 ± 0.2 µM	1.4	66%	102%	0.6 µM	1.1	3.7	8.5 mM	16 µM (≈ 7.31 µg/mL)	103 ± 1%	0.34 ± 0.04 µM	7.1 µM	143%	0.2 ± 0.04 µM	128 ± 4%	–	–
CC[C@H]1[C@@H](O)C2C3CC[C@H]([C@H](C)CCc4noc(=O)[nH]4)[C@@]3(C)[C@@H](O)CC2[C@@]2(C)CC[C@@H](O)C[C@@H]12 (stereo partly drawn) [Compound 11, 3α,7α,12α-trihydroxy-6α-ethyl-24-nor-5β-23([1,2,4]-oxadiazole-3-one-5yl)-cholane]	105%	2 µM	1.6	84%	108%	1.4 µM	5.94	7.0	5 mM	392 µM (≈ 187 µg/mL)	96 ± 19%	2.7 ± 1.8 µM	7.7 µM	100%	1 µM	140%	–	–
CC[C@H]1[C@@H](O)[C@@H]2[C@H](C[C@H](O)[C@]3(C)[C@@H]([C@H](C)C[C@H](F)C(=O)O)CC[C@@H]23)[C@@]2(C)CC[C@@H](O)C[C@@H]12 [Compound 8, 3α,7α,12α-Trihydroxy-6α-ethyl-23(S)-fluoro-5β-cholan-24-oate]	97 ± 1.7%	7 ± 3 µM	0.01	84%	100%	0.78 µM	2.82	3.6	6 mM	971 µM (≈ 441 µg/mL)	103 ± 2%	0.5 ± 0.1 µM	59.5 µM	47%	5.6 ± 1 µM	113 ± 3%	–	–
C[C@H](CCC(=O)NCC(=O)O)[C@H]1CC[C@H]2[C@@H]3[C@H](O)C[C@@H]4C[C@H](O)CC[C@]4(C)[C@H]3C[C@H](O)[C@]12C [GCA, reference compound]	–	–	−0.4	65%	–	–	3.9	6.3	8 mM	–	–	–	–	–	–	–	48.8 Dyne/cm	32 µM (≈ 14.9 µg/mL)
CC[C@H]1[C@@H](O)[C@@H]2[C@H](C[C@H](O)[C@]3(C)[C@@H]([C@H](C)C[C@@H](F)C(=O)O)CC[C@@H]23)[C@@]2(C)CC[C@@H](O)C[C@@H]12 [Compound 9, 3α,7α,12α-Trihydroxy-6α-ethyl-23(R)-fluoro-5β-cholan-24-oate]	75 ± 6%	22 ± 3 µM	0.2	89%	90%	1.8 µM	2.82	3.9	6 mM	469 µM (≈ 213 µg/mL)	98 ± 2%	1.4 ± 0.3 µM	55 µM	127%	2.9 ± 0.9 µM	147 ± 20%	–	–
C[C@H](CCC(=O)NCC(=O)O)[C@H]1CC[C@H]2[C@@H]3[C@H](O)C[C@@H]4C[C@H](O)CC[C@]4(C)[C@H]3CC[C@]12C [GCDCA, reference compound]	–	–	0.4	85%	–	–	3.9	6.4	2 mM	–	–	–	–	–	–	–	45.2 Dyne/cm	7 µM (≈ 3.15 µg/mL)
CC[C@H]1[C@@H](O)C2C3CC[C@H]([C@H](C)CCC(=O)O)[C@@]3(C)CCC2[C@@]2(C)CC[C@@H](O)C[C@@H]12 (stereo partly shown) [Ref. Cmpd. B, reference compound]	–	–	2.5	96%	–	–	5	7.2	2.9 mM	9 µM (≈ 3.79 µg/mL)	–	–	–	–	–	–	48.8 Dyne/cm	–
